# Reference: ChEMBL document CHEMBL1201862, “PubChem BioAssay data set” (2004)
# The source made the active and inactive calls.
# What was measured:
# SUMO-activating enzyme [1] = molecular target: T1, SUMO-activating enzyme (Homo sapiens, UniProt Q9UBT2); assay: inhibitors of in vitro SUMOylation cascade, primary screen, biochemical, HTRF, uHTS (AID 2006); format: protein-complex assay
# [2] = molecular target: T2, Tyrosine-protein phosphatase non-receptor type 12 (Homo sapiens, UniProt Q05209); assay: SAR Selectivity Analysis of small molecule inhibitors of PEST using pCAP in a fluorescence assay. [Related pubchem assays (depositor defined):AID1779, AID1784, AID2135]; format: functional
# T2 sequence (Q05209 whole entry): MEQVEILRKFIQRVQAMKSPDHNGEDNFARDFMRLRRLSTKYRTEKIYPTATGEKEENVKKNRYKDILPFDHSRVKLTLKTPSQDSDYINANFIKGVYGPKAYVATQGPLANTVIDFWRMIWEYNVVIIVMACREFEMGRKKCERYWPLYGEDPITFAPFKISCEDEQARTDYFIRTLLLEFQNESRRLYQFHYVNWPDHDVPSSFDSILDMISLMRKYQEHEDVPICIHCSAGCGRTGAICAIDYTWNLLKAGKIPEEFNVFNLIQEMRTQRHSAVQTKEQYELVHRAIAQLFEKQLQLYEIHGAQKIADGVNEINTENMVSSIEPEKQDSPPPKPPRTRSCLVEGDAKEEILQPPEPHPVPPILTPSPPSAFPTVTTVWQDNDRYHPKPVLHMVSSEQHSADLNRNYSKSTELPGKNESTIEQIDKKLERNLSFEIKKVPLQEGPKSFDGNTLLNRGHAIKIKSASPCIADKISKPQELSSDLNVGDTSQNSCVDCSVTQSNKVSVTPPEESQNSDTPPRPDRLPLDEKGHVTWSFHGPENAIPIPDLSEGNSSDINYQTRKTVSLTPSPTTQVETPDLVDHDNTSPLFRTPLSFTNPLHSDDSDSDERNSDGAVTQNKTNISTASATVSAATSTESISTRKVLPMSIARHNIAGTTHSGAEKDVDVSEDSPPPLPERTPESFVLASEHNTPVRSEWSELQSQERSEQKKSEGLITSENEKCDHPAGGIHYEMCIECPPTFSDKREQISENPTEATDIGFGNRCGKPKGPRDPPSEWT
# [3] = molecular target: T3, Carboxy-terminal domain RNA polymerase II polypeptide A small phosphatase 1 (Homo sapiens, UniProt Q9GZU7); assay: inhibitors of CTDSP1, concentration-response testing, biochemical assay, absorbance-based, actives from ultra-high-throughput screening (AID 540297); format: functional
# T3 sequence (Q9GZU7 whole entry): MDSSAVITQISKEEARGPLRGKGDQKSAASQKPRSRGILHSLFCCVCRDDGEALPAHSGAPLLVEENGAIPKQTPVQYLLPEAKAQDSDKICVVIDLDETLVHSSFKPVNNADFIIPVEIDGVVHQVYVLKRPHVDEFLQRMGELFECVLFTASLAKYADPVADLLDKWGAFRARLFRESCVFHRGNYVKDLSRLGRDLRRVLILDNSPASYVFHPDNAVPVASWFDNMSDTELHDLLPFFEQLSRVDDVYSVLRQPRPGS
# [4] = molecular target: T4, Tyrosine-protein phosphatase non-receptor type 22 (Homo sapiens, UniProt Q9Y2R2); assay: SAR LYP1 Fluorescent Assay using OMFP substrate for In Vitro dose response studies - Set 3. [Related pubchem assays (depositor defined):AID1779, AID1784, AID2140, AID2686]; format: functional
# T4 sequence (Q9Y2R2 whole entry): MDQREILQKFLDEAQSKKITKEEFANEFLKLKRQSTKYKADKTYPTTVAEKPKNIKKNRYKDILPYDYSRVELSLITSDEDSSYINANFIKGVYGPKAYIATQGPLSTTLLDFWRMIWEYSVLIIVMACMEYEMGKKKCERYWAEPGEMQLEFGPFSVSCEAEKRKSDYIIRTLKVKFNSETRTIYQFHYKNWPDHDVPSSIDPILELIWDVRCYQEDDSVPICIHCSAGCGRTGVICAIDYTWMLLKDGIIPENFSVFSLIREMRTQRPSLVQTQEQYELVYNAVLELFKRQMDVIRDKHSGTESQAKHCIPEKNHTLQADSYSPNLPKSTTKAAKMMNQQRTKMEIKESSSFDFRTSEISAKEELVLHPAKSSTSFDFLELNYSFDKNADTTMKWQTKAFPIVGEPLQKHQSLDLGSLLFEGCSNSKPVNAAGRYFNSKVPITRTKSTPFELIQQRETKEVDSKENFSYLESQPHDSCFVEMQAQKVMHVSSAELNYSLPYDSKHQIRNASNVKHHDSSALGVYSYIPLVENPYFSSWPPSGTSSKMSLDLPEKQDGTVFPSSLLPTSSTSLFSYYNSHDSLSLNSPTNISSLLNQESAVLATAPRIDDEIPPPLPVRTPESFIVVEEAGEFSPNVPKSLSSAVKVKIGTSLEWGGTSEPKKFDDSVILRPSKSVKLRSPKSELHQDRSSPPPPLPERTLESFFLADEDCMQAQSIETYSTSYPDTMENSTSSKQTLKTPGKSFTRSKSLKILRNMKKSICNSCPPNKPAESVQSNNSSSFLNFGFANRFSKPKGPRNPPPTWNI
# [5] = molecular target: Dual specificity protein phosphatase 6 (Rattus norvegicus, UniProt Q64346); format: functional;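 note: confirmatory in vitro dose-response testing of MKP-3 inhibition; recombinant His-tagged MKP-3 made in E. coli BL21 with OMFP substrate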
# Chain of Dual specificity protein phosphatase 6 (Q64346 whole entry, the tested form may be a part): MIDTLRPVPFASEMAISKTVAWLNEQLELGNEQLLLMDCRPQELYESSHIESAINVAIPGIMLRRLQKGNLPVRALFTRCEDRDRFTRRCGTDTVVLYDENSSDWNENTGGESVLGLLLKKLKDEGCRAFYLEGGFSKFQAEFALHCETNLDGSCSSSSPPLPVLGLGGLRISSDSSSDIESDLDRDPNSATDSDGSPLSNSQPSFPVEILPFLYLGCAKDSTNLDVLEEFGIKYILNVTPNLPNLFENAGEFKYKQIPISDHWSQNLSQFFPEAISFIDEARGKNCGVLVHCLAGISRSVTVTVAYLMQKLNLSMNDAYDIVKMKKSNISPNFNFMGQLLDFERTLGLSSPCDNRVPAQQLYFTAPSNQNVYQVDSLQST
# [6] = molecular target: Arf-GAP with SH3 domain, ANK repeat and PH domain-containing protein 1 (Homo sapiens, UniProt Q9ULH1); format: functional;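 note: biochemical fluorescence polarization dose–response screen measuring inhibition of ASAP1; ASAP1 GAP domain stimulating GTP hydrolysis by truncated human ARF1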
# Chain of Arf-GAP with SH3 domain, ANK repeat and PH domain-containing protein 1 (Q9ULH1 whole entry, the tested form may be a part): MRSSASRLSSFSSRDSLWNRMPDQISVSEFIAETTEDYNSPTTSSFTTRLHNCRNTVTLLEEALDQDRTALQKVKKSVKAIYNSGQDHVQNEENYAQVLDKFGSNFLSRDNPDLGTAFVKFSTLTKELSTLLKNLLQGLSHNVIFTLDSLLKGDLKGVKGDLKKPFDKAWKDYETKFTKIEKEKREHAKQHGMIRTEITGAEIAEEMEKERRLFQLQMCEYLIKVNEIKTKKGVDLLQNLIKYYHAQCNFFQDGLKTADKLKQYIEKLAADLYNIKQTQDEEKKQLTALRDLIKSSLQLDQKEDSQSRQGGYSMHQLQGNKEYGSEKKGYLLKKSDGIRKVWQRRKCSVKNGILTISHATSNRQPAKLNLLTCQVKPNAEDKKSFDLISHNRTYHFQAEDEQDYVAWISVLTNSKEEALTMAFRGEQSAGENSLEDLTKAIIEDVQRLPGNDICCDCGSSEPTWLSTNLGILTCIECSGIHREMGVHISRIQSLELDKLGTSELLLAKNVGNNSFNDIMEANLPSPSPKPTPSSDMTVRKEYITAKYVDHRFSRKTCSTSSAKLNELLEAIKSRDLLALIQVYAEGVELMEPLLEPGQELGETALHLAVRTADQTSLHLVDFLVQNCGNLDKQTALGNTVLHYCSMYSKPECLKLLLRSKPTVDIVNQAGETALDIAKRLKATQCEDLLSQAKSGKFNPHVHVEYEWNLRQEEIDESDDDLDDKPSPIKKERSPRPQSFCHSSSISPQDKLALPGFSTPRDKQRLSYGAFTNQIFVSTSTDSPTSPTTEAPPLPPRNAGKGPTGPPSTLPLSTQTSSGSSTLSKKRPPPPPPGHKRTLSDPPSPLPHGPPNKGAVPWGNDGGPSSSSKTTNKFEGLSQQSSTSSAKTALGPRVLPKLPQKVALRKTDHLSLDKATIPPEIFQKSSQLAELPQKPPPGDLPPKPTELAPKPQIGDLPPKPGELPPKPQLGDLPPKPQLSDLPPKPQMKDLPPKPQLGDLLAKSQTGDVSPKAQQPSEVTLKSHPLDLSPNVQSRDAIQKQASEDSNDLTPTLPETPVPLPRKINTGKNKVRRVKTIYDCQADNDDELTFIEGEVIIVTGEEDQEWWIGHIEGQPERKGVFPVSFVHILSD
# [7] = molecular target: Dual specificity protein phosphatase 3 (Homo sapiens, UniProt P51452); assay: SAR VHR1 Fluorescent Assay for In Vitro dose response studies Set 2. [Related pubchem assays (depositor defined):AID1654, AID1661, AID1878]; format: functional
# Chain of Dual specificity protein phosphatase 3 (P51452 whole entry): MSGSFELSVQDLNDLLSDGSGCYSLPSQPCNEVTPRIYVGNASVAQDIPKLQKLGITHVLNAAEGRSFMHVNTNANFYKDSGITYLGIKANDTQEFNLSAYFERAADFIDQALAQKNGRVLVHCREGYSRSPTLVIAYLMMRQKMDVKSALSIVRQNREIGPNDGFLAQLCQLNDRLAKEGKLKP
# [8] = molecular target: T5, Tyrosine-protein phosphatase non-receptor type 7 (Homo sapiens, UniProt P35236); assay: redox-dependent HePTP inhibition, mechanism study, biochemical, fluorescence (AID 2068); format: functional
# T5 sequence (P35236 whole entry): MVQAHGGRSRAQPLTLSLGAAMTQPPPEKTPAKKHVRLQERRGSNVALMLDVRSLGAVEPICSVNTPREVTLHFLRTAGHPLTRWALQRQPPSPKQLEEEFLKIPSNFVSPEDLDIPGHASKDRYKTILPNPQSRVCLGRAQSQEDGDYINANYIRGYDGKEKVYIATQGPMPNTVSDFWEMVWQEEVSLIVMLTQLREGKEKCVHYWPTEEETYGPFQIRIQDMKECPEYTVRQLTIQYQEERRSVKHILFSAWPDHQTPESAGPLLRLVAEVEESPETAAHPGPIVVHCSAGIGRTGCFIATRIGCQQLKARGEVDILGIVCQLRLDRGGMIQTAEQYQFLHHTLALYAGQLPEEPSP
# [9] = molecular target: T5, Tyrosine-protein phosphatase non-receptor type 7; assay: HePTP (PTPN7) phosphatase inhibitor potency, SAR follow-up, biochemical, set 2 (AID 449736); format: functional
# SUMO-activating enzyme [10] = molecular target: T1, SUMO-activating enzyme; assay: SUMOylation inhibitor hit validation, confirmation, SUMOylation inhibitor project, biochemical, AlphaScreen (AID 2018); format: functional
# [11] = molecular target: T4, Tyrosine-protein phosphatase non-receptor type 22; assay: LYP (PTPN22) phosphatase inhibitor potency, SAR follow-up, biochemical, pCAP fluorogenic substrate, fluorescence, set 3 (AID 449727); format: functional
# [12] = molecular target: T6, Small ubiquitin-related modifier 1 (Homo sapiens, UniProt P63165); assay: inhibitors of SUMO1 peptide binding, dose response, biochemical, fluorescence polarization, uHTS hits (AID 624382); format: functional; conditions: read-out: IC50_Mean
# T6 sequence (P63165 whole entry): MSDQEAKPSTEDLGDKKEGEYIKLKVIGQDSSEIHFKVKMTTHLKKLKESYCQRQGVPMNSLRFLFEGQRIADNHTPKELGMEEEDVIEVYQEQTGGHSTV
# [13] = molecular target: T6, Small ubiquitin-related modifier 1; assay: inhibitors of SUMO1 partner interactions, dose response, biochemical, FRET (AID 624383); format: functional; conditions: read-out: IC50_Mean
# [14] = molecular target: T7, Apoptotic protease-activating factor 1 (Homo sapiens, UniProt O14727); assay: activation of Apaf-1 mediated apoptosis – fluorescent, uHTS hits, dose response (AID 588554); format: functional
# T7 sequence (O14727 whole entry): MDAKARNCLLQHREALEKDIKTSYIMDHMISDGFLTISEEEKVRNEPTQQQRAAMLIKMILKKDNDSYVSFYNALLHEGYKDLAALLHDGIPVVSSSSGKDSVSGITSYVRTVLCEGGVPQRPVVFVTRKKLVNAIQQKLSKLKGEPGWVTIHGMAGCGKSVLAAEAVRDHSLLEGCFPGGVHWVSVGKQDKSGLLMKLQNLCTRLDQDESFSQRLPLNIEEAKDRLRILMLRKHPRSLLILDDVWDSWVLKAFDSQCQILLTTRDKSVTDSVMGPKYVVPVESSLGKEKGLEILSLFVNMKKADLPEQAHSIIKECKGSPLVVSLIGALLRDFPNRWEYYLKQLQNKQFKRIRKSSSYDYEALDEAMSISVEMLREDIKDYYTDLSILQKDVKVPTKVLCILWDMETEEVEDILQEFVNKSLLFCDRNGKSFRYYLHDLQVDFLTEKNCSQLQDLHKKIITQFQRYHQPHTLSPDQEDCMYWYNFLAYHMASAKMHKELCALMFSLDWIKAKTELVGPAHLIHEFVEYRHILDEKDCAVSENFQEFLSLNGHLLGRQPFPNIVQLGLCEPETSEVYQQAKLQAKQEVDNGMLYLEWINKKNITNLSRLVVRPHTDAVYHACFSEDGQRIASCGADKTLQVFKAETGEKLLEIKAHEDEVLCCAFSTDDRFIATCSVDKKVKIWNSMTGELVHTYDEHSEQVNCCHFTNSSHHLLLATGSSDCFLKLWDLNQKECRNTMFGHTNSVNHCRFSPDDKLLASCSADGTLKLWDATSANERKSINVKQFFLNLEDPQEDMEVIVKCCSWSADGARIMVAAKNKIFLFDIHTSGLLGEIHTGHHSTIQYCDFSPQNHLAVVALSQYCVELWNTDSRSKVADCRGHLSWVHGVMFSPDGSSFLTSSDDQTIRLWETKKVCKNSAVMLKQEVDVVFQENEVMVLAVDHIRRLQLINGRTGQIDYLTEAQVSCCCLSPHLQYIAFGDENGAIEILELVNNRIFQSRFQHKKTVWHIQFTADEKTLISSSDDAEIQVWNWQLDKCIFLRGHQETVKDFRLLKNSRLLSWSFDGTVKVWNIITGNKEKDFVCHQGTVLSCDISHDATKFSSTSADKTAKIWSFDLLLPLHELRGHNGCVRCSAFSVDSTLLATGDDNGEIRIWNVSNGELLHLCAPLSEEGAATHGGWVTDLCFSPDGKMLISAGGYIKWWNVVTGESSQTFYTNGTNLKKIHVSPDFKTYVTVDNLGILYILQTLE
# [15] = molecular target: Beta-adrenergic receptor kinase 1 (Homo sapiens, UniProt P25098); assay: GRK2 inhibitors displacing RNA aptamer, dose response, biochemical, flow cytometry beads, FAM-aptamer, powder set 1 (AID 588720)
# Chain of Beta-adrenergic receptor kinase 1 (P25098 whole entry): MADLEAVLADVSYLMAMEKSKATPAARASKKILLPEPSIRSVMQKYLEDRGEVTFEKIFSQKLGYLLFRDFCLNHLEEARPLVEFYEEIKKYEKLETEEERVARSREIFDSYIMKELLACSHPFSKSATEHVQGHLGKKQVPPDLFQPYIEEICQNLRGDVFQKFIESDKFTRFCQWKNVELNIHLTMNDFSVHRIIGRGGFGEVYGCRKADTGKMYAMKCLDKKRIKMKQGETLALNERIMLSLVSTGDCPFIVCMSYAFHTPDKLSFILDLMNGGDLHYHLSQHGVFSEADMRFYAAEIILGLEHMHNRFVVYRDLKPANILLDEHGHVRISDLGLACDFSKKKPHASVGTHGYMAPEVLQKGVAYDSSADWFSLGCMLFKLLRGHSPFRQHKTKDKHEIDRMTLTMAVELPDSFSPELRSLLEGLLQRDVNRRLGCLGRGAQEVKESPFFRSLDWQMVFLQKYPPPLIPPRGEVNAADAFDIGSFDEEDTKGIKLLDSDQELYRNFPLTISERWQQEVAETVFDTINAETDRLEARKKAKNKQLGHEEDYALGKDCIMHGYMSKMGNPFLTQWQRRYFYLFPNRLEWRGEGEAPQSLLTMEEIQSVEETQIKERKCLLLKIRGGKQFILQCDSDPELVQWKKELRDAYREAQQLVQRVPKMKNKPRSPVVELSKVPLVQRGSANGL
# Jurkat = assay: SAR Analysis of small molecule inhibitors of […] specific antigen receptor-induced NF-kB activation in a Jurkat cell line using a luminescence assay - Set 3. [Related pubchem assays (depositor defined):AID435022, AID435025, AID465]; format: functional, cell-based; conditions: Homo sapiens
# HEK293 [16] = assay: SAR Analysis of small molecule inhibitors of B-cell specific antigen receptor-induced NF-kB activation in a HEK-293T cell line using a luminescence assay - Set 2. [Related pubchem assays (depositor defined):AID435022, AID435025, AID489021]; format: functional, cell-based; conditions: Homo sapiens
# HEK293 [17] = assay: cytotoxicity in HEK293T NF-kB-Luc cells, SAR follow-up, cytotoxicity control for NF-kB activator project, cell-based, resazurin fluorescence (AID 493251); format: functional; conditions: Homo sapiens
# T1 sequence (Q9UBE0 whole entry): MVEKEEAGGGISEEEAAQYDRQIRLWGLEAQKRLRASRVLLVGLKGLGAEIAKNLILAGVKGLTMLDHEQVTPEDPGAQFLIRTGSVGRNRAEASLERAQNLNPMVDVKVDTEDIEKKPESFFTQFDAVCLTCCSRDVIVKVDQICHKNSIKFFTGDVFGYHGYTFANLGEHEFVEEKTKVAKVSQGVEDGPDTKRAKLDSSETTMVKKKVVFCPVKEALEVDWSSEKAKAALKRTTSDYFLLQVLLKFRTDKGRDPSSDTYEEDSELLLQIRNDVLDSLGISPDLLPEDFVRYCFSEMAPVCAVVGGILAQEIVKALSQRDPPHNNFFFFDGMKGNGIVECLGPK
# T1 sequence (Q9UBT2 whole entry): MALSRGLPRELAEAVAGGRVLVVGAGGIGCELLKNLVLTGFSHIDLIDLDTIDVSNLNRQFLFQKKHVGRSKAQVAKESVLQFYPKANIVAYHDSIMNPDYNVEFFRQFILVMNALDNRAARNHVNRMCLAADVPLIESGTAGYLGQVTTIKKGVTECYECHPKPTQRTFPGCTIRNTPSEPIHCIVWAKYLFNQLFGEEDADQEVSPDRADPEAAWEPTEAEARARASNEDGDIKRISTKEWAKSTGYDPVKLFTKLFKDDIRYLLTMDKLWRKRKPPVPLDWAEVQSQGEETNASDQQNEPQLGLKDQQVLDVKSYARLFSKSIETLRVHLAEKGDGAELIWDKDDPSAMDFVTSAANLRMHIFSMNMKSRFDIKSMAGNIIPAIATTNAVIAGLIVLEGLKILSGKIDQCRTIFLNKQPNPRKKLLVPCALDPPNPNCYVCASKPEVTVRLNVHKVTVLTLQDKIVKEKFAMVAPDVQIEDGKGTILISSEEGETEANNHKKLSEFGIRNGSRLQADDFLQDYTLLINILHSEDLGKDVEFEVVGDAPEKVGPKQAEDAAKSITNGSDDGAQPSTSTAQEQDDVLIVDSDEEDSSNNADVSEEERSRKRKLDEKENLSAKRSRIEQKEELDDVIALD
SMILES,IC50 (SUMO-activating enzyme [1]),IC50 [2],IC50 [3],IC50 [4],IC50 [5],IC50 [6],IC50 [7],IC50 [8],IC50 [9],IC50 (SUMO-activating enzyme [10]),IC50 [11],IC50 [12],IC50 [13],EC50 [14],EC50 [15],IC50 (Jurkat),IC50 (HEK293 [16]),IC50 (HEK293 [17])
Cc1ccc(NC(=O)CN2C(=O)S/C(=C\c3cc(Cl)c(OCC(=O)O)c(Cl)c3)C2=O)cc1,13.5 µM (active),2.79 µM (active),2.5 µM (active),3.95 µM (active),17.8 µM (active),6.61 µM (active),3.55 µM (active),0.819 µM (active),0.596 µM (active),8.11 µM (active),4.09 µM (active),–,–,–,–,–,–,–
CCOc1ccccc1NC(=O)CCS(=O)(=O)c1ccc(Br)cc1,–,–,4.09 µM (active),–,–,–,–,–,–,–,–,> 66.6 µM (inactive),6.76 µM (active),11.6 µM (active),0.337 µM (active),–,–,–
CCOc1ccc(-c2noc(CCC(=O)NC)n2)cc1,–,–,–,–,–,–,–,–,–,–,–,–,–,–,–,> 80 µM (inactive),> 80 µM (inactive),> 80 µM (inactive)
